Measured values from patent US20160158200A1, “Combinations of Hepatitis C Virus Inhibitors” (priority 2013, published 2016).

test system: HCV genotype-1a variant with glutamine 30 changed to glutamate in the NS5A protein; type: cell-based; settings: test compound titrated with BMS-790052 fixed at 200 nM; genotype 1a Q30E replicon
Outline: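 Synergy was assessed by combining several fixed amounts of an NS5A-targeting compound with a titration of the second compound of interest.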

SMILES	Fold-Synergistic 1a (Q30E) [fold]
CC1(C)CCN(C(=O)c2ccc(-c3ccccc3)cc2)C1c1nc(-c2ccc(-c3ccc(-c4c[nH]c(C5N(C(=O)c6ccc(-c7ccccc7)cc6)CCC5(C)C)n4)cc3)cc2)c[nH]1 (centres unmarked) [Compound W-227]	>100
CC(C)(C)[C@H](NC(=O)C1(CO)CC(F)(F)C1)c1nc(-c2ccc(-c3ccc(-c4c[nH]c([C@@H](NC(=O)C5(CO)CC(F)(F)C5)C(C)(C)C)n4)cc3)cc2)c[nH]1 [Compound N-153]	>100
CC(C)(C)OC(=O)N1CC2(CC2)C[C@H]1C(=O)N[C@H](c1nc(-c2ccc(-c3ccc(-c4c[nH]c([C@@H](NC(=O)[C@@H]5CC6(CC6)CN5C(=O)OC(C)(C)C)C(C)(C)C)n4)cc3)cc2)c[nH]1)C(C)(C)C [Compound W-94]	>100
CC(C)(C)C(NC(=O)C1(O)CCCC1)c1nc(-c2ccc(-c3ccc(-c4c[nH]c(C(NC(=O)C5(O)CCCC5)C(C)(C)C)n4)cc3)cc2)c[nH]1 [Compound L-73]	>100
Cc1ccccc1CC(=O)N[C@H](c1ncc(-c2ccc(-c3ccc(-c4cnc([C@@H](NC(=O)Cc5ccccc5C)C(C)C)[nH]4)cc3)cc2)[nH]1)C(C)C [Compound S-39]	>100
CC(C)[C@H](NC(=O)C(C)(C)C)c1ncc(-c2ccc3cc4cc(-c5cnc([C@@H](NC(=O)C(C)(C)C)C(C)C)[nH]5)ccc4cc3c2)[nH]1.O=C(O)C(F)(F)F [Compound B30]	>100
CC(C)(C)C(=O)NC(c1nc(-c2ccc(-c3ccc(-c4c[nH]c(C(NC(=O)C(C)(C)C)C5(C(F)(F)F)CC5)n4)cc3)cc2)c[nH]1)C1(C(F)(F)F)CC1 (single isomer, unassigned) [Compound N-107A]	>100
CC(C)[C@H](NC(=O)C1CCOCC1)c1ncc(-c2ccc(-c3ccc(-c4cnc([C@@H](NC(=O)C5CCOCC5)C(C)C)[nH]4)cc3)cc2)[nH]1 [Compound P-59]	>100
COc1ccccc1C(O)C(C)(C)C(=O)N[C@H](c1nc(-c2ccc(-c3ccc(-c4c[nH]c([C@@H](NC(=O)C(C)(C)C(O)c5ccccc5OC)C(C)(C)C)n4)cc3)cc2)c[nH]1)C(C)(C)C (single isomer, unassigned) [Compound N-125B]	>100
CC(C)(C)[C@H](NC(=O)C1CCC(F)(F)CC1)c1ncc(-c2ccc(-c3ccc4nc([C@@H](NC(=O)C5CCC(F)(F)CC5)C(C)(C)C)[nH]c4c3)cc2)[nH]1 [Compound B58]	>100
CC1(OC(=O)N2CC(F)CC2C(=O)NC(c2nc(-c3ccc(-c4ccc(-c5c[nH]c(C(NC(=O)C6CC(F)CN6C(=O)OC6(C)CC6)C(C)(C)C)n5)cc4)cc3)c[nH]2)C(C)(C)C)CC1 (centres unmarked) [Compound W-119]	>100
CC(C)(C)[C@H](NC(=O)Cc1noc2ccccc12)c1nc(-c2ccc(-c3ccc(-c4c[nH]c([C@@H](NC(=O)Cc5noc6ccccc56)C(C)(C)C)n4)cc3)cc2)c[nH]1 [Compound P-16]	>100
CC(C)[C@H](NC(=O)CC(F)(F)F)c1ncc(-c2ccc(-c3ccc(-c4cnc([C@@H](NC(=O)CC(F)(F)F)C(C)C)[nH]4)cc3)cc2)[nH]1 [Compound S-53]	>100
CC(C)(C)[C@H](Nc1nc(Cl)c(Cl)s1)c1nc(-c2ccc(-c3ccc(-c4c[nH]c([C@@H](Nc5nc(Cl)c(Cl)s5)C(C)(C)C)n4)cc3)cc2)c[nH]1 [Compound W-179]	>10
CCC(=O)NC1(C(=O)N[C@H](c2nc(-c3ccc(-c4ccc(-c5c[nH]c([C@@H](NC(=O)C6(NC(=O)CC)CCCCC6)C(C)(C)C)n5)cc4)cc3)c[nH]2)C(C)(C)C)CCCCC1 [Compound W-265]	>100
COc1cnc(C(=O)N2CCC[C@H]2c2ncc(-c3ccc(-c4ccc(-c5cnc([C@@H]6CCCN6C(=O)c6ncc(OC)c7ccccc67)[nH]5)cc4)cc3)[nH]2)c2ccccc12 [Compound S-199]	>100
COC1(C(=O)N[C@H](c2nc(-c3ccc(-c4ccc(-c5c[nH]c([C@@H](NC(=O)C6(OC)CCC(F)(F)CC6)C(C)(C)C)n5)cc4)cc3)c[nH]2)C(C)(C)C)CCC(F)(F)CC1 [Compound P-34]	>100
CC(C)(C)[C@H](NC(=O)C(C)(C)C(F)(F)F)c1nc(-c2ccc(-c3ccc(-c4c[nH]c([C@@H](NC(=O)C(C)(C)C(F)(F)F)C(C)(C)C)n4)cc3)cc2)c[nH]1 [Compound P-31]	>100
CC(C)(C)[C@H](NC(=O)C1CCC(F)(F)CC1)c1ncc(-c2ccc(C#Cc3ccc4nc([C@@H](NC(=O)C5CCC(F)(F)CC5)C(C)(C)C)[nH]c4c3)cc2)[nH]1 [Compound B45]	>100
O=C(NC(c1nc(-c2ccc(-c3ccc(-c4c[nH]c(C(NC(=O)C5CCC(F)(F)CC5)C5(C(F)(F)F)CC5)n4)cc3)cc2)c[nH]1)C1(C(F)(F)F)CC1)C1CCC(F)(F)CC1.O=C(O)C(F)(F)F (single isomer, unassigned) [Compound N-109B]	>100
CC(C)[C@H](NC(=O)C(C)(C)C)c1nc2ccc(C#Cc3ccc4nc([C@@H](NC(=O)C(C)(C)C)C(C)C)[nH]c4c3)cc2[nH]1.O=C(O)C(F)(F)F [Compound B43]	>100

SMILES	Fold-Synergistic 1a (Q30E) [fold]
CC(C)[C@H](NC(=O)C(C)(C)OCCF)c1ncc(-c2ccc(-c3ccc(-c4cnc([C@@H](NC(=O)C(C)(C)OCCF)C(C)C)[nH]4)cc3)cc2)[nH]1 [Compound Y-32]	>100
O=C(C1CC1)N1CCC[C@H]1c1ncc(-c2ccc(-c3ccc(-c4cnc([C@@H]5CCCN5C(=O)C5CC5)[nH]4)cc3)cc2)[nH]1 [Compound S-109]	<10
CC(C)(C)[C@H](NC(=O)C1(NC(=O)CC(F)(F)F)CCCCC1)c1nc(-c2ccc(-c3ccc(-c4c[nH]c([C@@H](NC(=O)C5(NC(=O)CC(F)(F)F)CCCCC5)C(C)(C)C)n4)cc3)cc2)c[nH]1 [Compound W-255]	>100
COC1(C(=O)C(=O)N[C@H](c2ncc(-c3ccc(-c4ccc(-c5cnc([C@@H](NC(=O)C(=O)C6(OC)CCC(F)(F)CC6)C(C)C)[nH]5)cc4)cc3)[nH]2)C(C)C)CCC(F)(F)CC1 [Compound P-126]	>100
CC(C)[C@H](NC(=O)C1(C)COC1)c1ncc(-c2ccc(-c3ccc(-c4cnc([C@@H](NC(=O)C5(C)COC5)C(C)C)[nH]4)cc3)cc2)[nH]1 [Compound P-84]	>100
CC(C)(C)[C@H](NC(=O)C1(CO)CCCO1)c1nc(-c2ccc(-c3ccc(-c4c[nH]c([C@@H](NC(=O)C5(CO)CCCO5)C(C)(C)C)n4)cc3)cc2)c[nH]1 (single isomer, unassigned) [Compound Y-112]	>100
CC(C)[C@H](NC(=O)c1cc(C(C)(C)C)nn1C)c1ncc(-c2ccc(-c3ccc(-c4cnc([C@@H](NC(=O)c5cc(C(C)(C)C)nn5C)C(C)C)[nH]4)cc3)cc2)[nH]1 [Compound S-101]	>100
CC(C)[C@H](NC(=O)c1cc(Cl)cs1)c1ncc(-c2ccc(-c3ccc(-c4cnc([C@@H](NC(=O)c5cc(Cl)cs5)C(C)C)[nH]4)cc3)cc2)[nH]1 [Compound P-90]	>100
CC(C)(C(=O)N[C@H](c1nc(-c2ccc(-c3ccc(-c4c[nH]c([C@@H](NC(=O)C(C)(C)C(F)F)C(C)(C)C)n4)cc3)cc2)c[nH]1)C(C)(C)C)C(F)F [Compound P-32]	>100
CC(CO)(CF)C(=O)NC(c1nc(-c2ccc(-c3ccc(-c4c[nH]c(C(NC(=O)C(C)(CO)CF)C(C)(C)C)n4)cc3)cc2)c[nH]1)C(C)(C)C (mixture of isomers) [Compound N-138]	>100
COC(=O)C1(C(=O)N[C@H](c2nc(-c3ccc(-c4ccc(-c5c[nH]c([C@@H](NC(=O)C6(C(=O)OC)CC6)C(C)(C)C)n5)cc4)cc3)c[nH]2)C(C)(C)C)CC1 [Compound W-124]	>100
COCC(=O)NC1(C(=O)N[C@H](c2nc(-c3ccc(-c4ccc(-c5c[nH]c([C@@H](NC(=O)C6(NC(=O)COC)CCCCC6)C(C)(C)C)n5)cc4)cc3)c[nH]2)C(C)(C)C)CCCCC1 [Compound W-263]	>100
COC(=O)N(C)CC1(C(=O)N[C@H](c2nc(-c3ccc(-c4ccc(-c5c[nH]c([C@@H](NC(=O)C6(CN(C)C(=O)OC)CC6)C(C)(C)C)n5)cc4)cc3)c[nH]2)C(C)(C)C)CC1 [Compound L-41]	>100
CC(C)(C)[C@H](NC(=O)C(C)(O)C1(C)CC1)c1nc(-c2ccc(-c3ccc(-c4c[nH]c([C@@H](NC(=O)C(C)(O)C5(C)CC5)C(C)(C)C)n4)cc3)cc2)c[nH]1 (single isomer, unassigned) [Compound L-93c]	>100
CC(C)[C@H](NC(=O)OC(C)(C)C)c1ncc(-c2ccc(-c3ccc(-c4cnc([C@@H](NC(=O)C(C)(C)C)C(C)C)[nH]4)cc3)cc2)[nH]1 [Compound Y-51]	>100
Cc1nn(-c2ccccc2)nc1C(=O)N[C@H](c1ncc(-c2ccc(-c3ccc(-c4cnc([C@@H](NC(=O)c5nn(-c6ccccc6)nc5C)C(C)C)[nH]4)cc3)cc2)[nH]1)C(C)C [Compound S-95]	>10
CC(C)CC(=O)N1CCC[C@H]1c1ncc(-c2ccc(-c3ccc(C4=CNC([C@@H]5CCCN5C(=O)CC(C)C)N4)cc3)cc2)[nH]1 (some centres unmarked) [Compound S-112]	<10
CC(C)C(NC(=O)C1CC(F)CN1C(=O)OC(C)(C)C)c1nc(-c2ccc(-c3ccc(-c4c[nH]c(C(NC(=O)C5CC(F)CN5C(=O)OC(C)(C)C)C(C)C)n4)cc3)cc2)c[nH]1 (centres unmarked) [Compound W-181]	>100
CN(C)C(=N[C@H](c1ncc(-c2ccc(-c3ccc(-c4cnc([C@@H](NC(=O)C(C)(C)C5=CCCCC5)C(C)(C)C)[nH]4)cc3)cc2)[nH]1)C(C)(C)C)N(C)C [Compound B87]	>100
CC(C)[C@H](NC(=O)c1ccc(C#N)cc1)c1ncc(-c2ccc(-c3ccc(-c4cnc([C@@H](NC(=O)c5ccc(C#N)cc5)C(C)C)[nH]4)cc3)cc2)[nH]1 [Compound S-81]	>100
